Assay results from a melting point compilation (Tetko et al.; mined from patent text by program, amines drawn as free bases though some values may be those of a salt).

melting point [°C] | Compound
116 to 118 | O=C(CNC(=O)c1cc([N+](=O)[O-])ccc1Cl)OCc1ccccc1
171 | CC(C)(C)c1ccc2[nH]c(C(=O)c3ccc(Cl)cc3)c(CC(=O)O)c2c1
76 to 77 | COC(=O)c1ccc(-c2ccc(C(OC)OC)cc2)cc1
141 to 142 | CCOC(=O)c1c(O)c2cc(Cl)cnc2n(Cc2ccccc2)c1=O
200 | COc1ccc(C(O)(c2ccc3c(c2)c(-c2cccc(Cl)c2)nc2nnnn23)c2cncn2C)cc1 (stereo not given)
200 to 203 | CCc1ccc2c(c1)OC1(O)c3cccc(N)c3C(=O)C21O (stereo not given)
164 to 165 | OCCCNC1=Nc2ccccc2C1(O)c1cccc(Cl)c1 (stereo not given)
141 to 142 | COc1cc(COc2cc(CC#N)n(-c3ccccc3)n2)ccc1OCc1nc(-c2ccco2)oc1C
95 to 99 | COC(=O)C(=O)c1ccc(OCCOc2ccc3c(c2)CCCC3)cc1
132 to 133 | O=c1c(-c2ccccc2)c[nH]n1-c1ccccn1
154 | O=c1c(-c2nc3ccccc3[nH]2)coc2ccccc12
201 | O=P(O)(O)C(O)(CCc1ccc(Cl)cc1)P(=O)(O)O
88 to 89 | COC(=O)c1ccc([N+](=O)[O-])cc1C#CC(C)(C)C
234 to 236 | COc1cc(C=C2SC(=S)N(c3ccc(O)cc3)C2=O)ccc1OC1OC(CO)C(O)C(O)C1NC(C)=O (stereo not given)
199 to 201 | CCOC1(OCC)OC(C)=C(C(=O)Nc2ccc(Cl)cc2)[C@@H](NC(C)=O)[C@@H]1C (relative stereo)
275 to 280 | O=C1C=c2c(c3c(c4[nH]c5ccccc5c24)Cc2ccccc2-3)=N1
148 | CC(C)c1ccc(S(=O)(=O)n2c(CCCC(=O)O)cc3cc(Cl)ccc32)cc1
197 | CCc1c[nH]c(-c2ccc3c(c2)N(C(C)CN2CCCC2)c2ccccc2S3)n1 (racemic)
194 to 196 | Oc1c(Cl)cc2c(-c3ccccc3F)noc2c1Cl
186 to 188 | Cc1cc2c(-c3ccccc3)c(CC#N)n(C)c(=O)c2cc1C

melting point [°C] | Compound
107 to 109 | O=S(=O)(/C=C/c1ccccc1)Nc1ccc(Cl)cc1
296 to 298 | Cc1csc2[nH]c(=O)n(Cc3ccc(Br)cc3F)c(=O)c12
134 to 135 | CCC(C)CNC(=O)c1ccc2cccc(Cc3ccc(C(=O)OC)cc3OC)c2c1 (stereo not given)
172 to 175 | O=C1SC(CCCC#Cc2ccc(Cl)cc2)(S(=O)(=O)c2ccc(I)cc2)C(=O)N1Cc1ccc([N+](=O)[O-])cc1 (stereo not given)
173 to 175 | CCCOc1cccc(C2(c3ccncc3)N=C(N)N(C)C2=O)c1 (stereo not given)
268 to 270 | CN(C)c1ccc2c(c1)C(=O)N(c1ccc3c(c1)CCN3C)C2
94 to 96 | O=C(O)Cc1ccc(CCCSc2ccc(Cl)cc2)cc1
191 to 194 | C[C@@H](c1ccc(-c2ccc(C(=O)NC3CC3)cn2)cc1)N1CC[C@](CC(C)(C)O)(c2ccccc2)OC1=O
173 to 175 | NC(=O)c1ccnc(-c2cccc3cc(Cc4cc(F)cc(Cl)c4)sc23)c1
65 to 67 | CCCc1cc(N2CCN(c3ccncc3)CC2)ccc1OCCCC(=O)OCC
246 to 247 | CC(C)n1nc(-c2nc(C#Cc3ccccn3)c(N)nc2-c2ccccc2)ccc1=O
125 to 126 | Cc1cn(-c2ccc(NC(=O)c3ccc(C)c(C#Cc4ccc(NC5CC5)nn4)c3)cc2C(F)(F)F)cn1
257 | COc1ccc(-c2[nH]nc3c2C(=O)c2c(NC(=O)NNC(=O)c4ccccc4N)cccc2-3)cc1
185 to 189 | O=C(O)CCC12CC(c3ccccc31)c1ccccc12
99.8 to 100 | CCCN(c1ccccc1)c1nc(C)nc(Cl)c1[N+](=O)[O-]
160 | Nc1ncnc2c1ncn2C1CC(O)(C(=O)c2cccc(C(F)(F)F)c2)C(COC(=O)c2cccc(C(F)(F)F)c2)O1 (stereo not given)
258 to 262 | O=C(O)CN1C(=O)C(=Cc2ccc(-c3ccccc3)cc2)SC1=S
> 250 | Cc1ncc(Cl)c(C(=O)Nc2ccn3cc(-c4ccccc4)nc3n2)n1
93 to 94 | CCCc1ccc(S(=O)(=O)Nc2ccc(OC)nc2)cc1
> 280 | Cc1cc(=O)n2nc(-c3ccc(F)cc3)c(-c3ccncc3)c2[nH]1

melting point [°C] | Compound
153 to 154 | Nc1cc(C(=O)c2ccc(Oc3ccccc3)c(N)c2)ccc1Oc1ccccc1
194 to 195 | CNC(=O)c1cc(F)ccc1CNC(=O)c1nc2n(c(=O)c1OCc1ccccc1)CCN2c1ccccc1
198 to 200 | O=[N+]([O-])c1cc(-c2ccoc2)ccc1Nc1cc(-n2ccnc2)ncn1
114 to 115 | Cc1cc(C(=O)CC(O)(c2cc(Cl)cc(Cl)c2)C(F)(F)F)ccc1C(=O)O (stereo not given)
140 to 141 | CCOC(=O)c1cnn(-c2ccc3ccccc3n2)c1S(N)(=O)=O
177 to 179 | CN(Cc1ccc(NS(C)(=O)=O)cc1)C1CCN(c2ccc(NS(C)(=O)=O)cc2)CC1
174 to 177 | Cn1c(CO)nc2ccc(-c3ccccc3)nc21
91 | COCc1cc2c([N+](=O)[O-])cccc2cn1
128 to 130 | CCCS(=O)c1ccc([N+](=O)[O-])c(N)c1 (stereo not given)
218 to 220 | CC1Cc2cc3c(cc2C(c2ccc([N+](=O)[O-])cc2)=NN1C1=NC(=O)CS1)OCO3 (stereo not given)
82 | N#Cc1ccccc1Sc1ccc(Cl)cc1
204 to 205 | O=C(Nc1cccnc1)N1CCc2ccc(Cl)cc21
72 to 75 | CCCc1c(OCCCCCc2ccc(OC)c(OC)c2)ccc(C(C)=O)c1O
125 to 127 | COc1ccc2nc(NC(=O)C(CC3CCCC3)c3ccc(S(=O)(=O)Nc4cccnc4)cc3)sc2n1 (stereo not given)
163 to 164 | O=C(O)COc1c(Br)cc(C(=O)c2c(CCc3ccccc3)oc3ccccc23)cc1Br
186 to 190 | CCc1cnc(N2CCC(c3nc4cc(-c5ccc(S(C)(=O)=O)cc5F)ccc4[nH]3)CC2)nc1
163 to 164 | N#Cc1cc([N+](=O)[O-])ccc1Oc1ccc(Cl)cc1
> 360 | O=C(O)c1ccc2c(=O)n3nc(C(=O)O)ccc3nc2c1

More lines, now with the values behind:

Compound | melting point [°C]
CCNC(=O)c1c(C(F)(F)F)cccc1[Si](C)(C)C | 134 to 135
CCOC(=O)C(=CNc1ccc(F)c(F)c1O)C(=O)OCC | 178 to 180
CC(=O)c1cc(Cl)cc(Oc2ncccc2C(=O)NC[C@H]2CC[C@H](C(C)(C)O)CC2)c1 | 133 to 135
CCOC(=O)c1cc(O)c2cc3c(O)cc(C(=O)OCC)nc3c(N3CCCCCC3)c2n1 | 301 to 302
CCc1cccc2cc(C(C)=O)oc12 | 59 to 60
OCC1=C(c2cc3ccccc3s2)N2CCN=C2S1 | 138 to 140
CCOC(=O)c1ccc(OCCCCCCCCCCBr)cc1 | 41 to 42
CC(C)(C)NS(=O)(=O)c1cccc(F)n1 | 88 to 90
COc1ccc2cccc3c2c1CCC3CNC(=O)C1CC1 (stereo not given) | 119
CS(=O)(=O)N1CCC2OC2CC1 (stereo not given) | 133 to 134
CCCCCCCCCCCCCCCC(=O)n1cc(F)c(=O)[nH]c1=O | 98
O=C(c1cccnc1)N1CCC(c2ccc(Br)cc2)=N1 | 117 to 119
COc1ccc2c(c1)cc1n2CCC(COC(C)=O)C1 (stereo not given) | 98 to 100
NC(=O)CC(O)(Cn1cncn1)c1ccc(Cl)cc1Cl (stereo not given) | 144 to 145
COc1ccc(C2=CCN(Cc3n[nH]c4c(Cl)cccc34)CC2)cc1 | 201 to 203
Cn1c(=O)c2c(ncn2CCCCC#N)n(C)c1=O | 118 to 120
Nc1ccccc1C(=O)OC1CCN(Cc2ccccc2)CC1 | 87 to 88
O=c1c2cc(F)ccc2nc(CNc2ncccn2)n1-c1ccccc1Cl | 182 to 185
O=C(C[C@@H](CCCC1CCCCC1)c1nc(CN2CCOCC2)co1)NO | 117 to 119
CS(=O)c1ccc2c(c1)OC(C)(C)O2 (stereo not given) | 87 to 88
CC(C)(C)NC(=O)c1cc(C(C)(C)C)c(O)c(C(C)(C)C)c1 | 207 to 208

Compound | melting point [°C]
CCOc1cc2cc(COC(C)=O)c(COC(C)=O)c(-c3ccncc3)c2cc1OCC | 115 to 116
CCOC(=O)C(=O)c1cccc(NC=O)n1 | 124 to 126
CC(=O)Nc1cccc(-c2csc3nc(C45CC6CC(CC(C6)C4)C5)cn23)c1 | 98 to 100
COCCN1CCc2cc(Nc3ncc(Cl)c(Nc4cc(C(N)=O)ccc4OC)n3)c(OC)cc2CC1 | 218 to 225
COc1cc2ncc(N[C@H]3CC[C@H](C(=O)OC)CC3)nc2cc1OC | 68 to 80
COc1ccc(N2CCN(c3c(C)c(C)c4c(c3C)CC(C)(C)O4)CC2)cc1C | 137 to 141
O=C1Cc2cc(Cl)ccc2N1O | 202 to 208
CC(=O)NCCCC(=O)c1ccccc1 | 92 to 95
CC(C)(O)[C@H](NC(=O)C(Cl)(Cl)Cl)c1ccccc1 | 97
COc1ccc(N2CCN(c3c(C)c(C)c4c(c3C)C(O)C(C)(C)O4)CC2)cc1 (stereo not given) | 159 to 161
NC(=O)c1cn(Cc2ccccc2F)nn1 | 220 to 222
CC(C)C[C@@H](C#N)NC(=O)[C@@H]1CCCC[C@@H]1NC(=O)c1ccc2ncsc2c1 | 200 to 201
COc1c(C)cnc(CS(=O)c2nc3cc(C(F)(F)F)ccc3[nH]2)c1C (stereo not given) | 163
COC(=O)C1CCCN1C(=O)c1ccccc1 (stereo not given) | 88.5 to 90
COC(=O)CCc1cnc(C)s1 | 115
CC(C)N(CCN1C(=O)/C(=N/NC(=O)NC2CCCCC2)c2cc(Br)ccc21)C(C)C | 155 to 156
COc1cc([N+](=O)[O-])c2ncc(C)cc2c1 | 173 to 175
Cc1nc(-c2ccc(C(C)(C)C)cc2)sc1C(=O)O | 190 to 193
Cc1cc2nc3[nH]c4ccc(Br)cc4c3nc2cc1C | 319 to 322
CC(C)C(CO)NC(=O)c1nsc2ccc(-n3c(=O)cc(C(F)(F)F)n(C)c3=O)cc12 (stereo not given) | 120
CC1(C)CCC(C)(C)c2c(C=O)cc(-c3ccccc3)cc21 | 113
